Earlier results, collected in patent US9200991B2, “Sorptive extraction layer for immobilized liquid extraction” (Tecan Trading AG, priority 2013, dated 2015).

reported logP: approximately 3.8
Compound: CC(C)Cc1ccc(C(C)C(=O)O)cc1 (stereo not shown) [Ibuprofen]
